Reference: patent US10906878B2, “Kinase inhibitors for the treatment of disease” (Dana-Farber Cancer Institute, Inc., priority 2013, dated 2021)

Columns and labels:
TEC = TEC (Homo sapiens (Human), UniProt P42680); assay: Kinase inhibition TEC; type: biochemical
Ba/F3 TEL-JAK1 = Ba/F3 TEL-JAK1 (Homo sapiens, UniProt P23458); assay: Inhibition of Ba/F3 TEL-JAK1 cell line; type: cell-based; settings: read-out: IC50 (μM) Ba/F3 TEL-JAK1
Experimental: (§1) Growth and inhibition of growth was assessed by MTS assay. This assay, a colorimetric method for determining the number of viable cells, is based on the bioreduction of 3-(4,5-dimethylthiazol-2-yl)-5-(3-carboxymethoxyphenyl)-2-(4-sulfophenyl)-2H-tetrazolium (MTS) by cells to a formazan product that is soluble in cell culture medium, can be detected spectrophotometrically and was performed according to the manufacturer's recommended conditions. Ba/F3 cells were exposed to treatment for 72 hours and the number of cells used per experiment determined empirically to assure linear growth kinetics over that time period. All experimental points were set up in six to twelve wells and all experiments were repeated at least three times. […] The curves were fitted using a non-linear regression model with a sigmoidal dose response.

Ba/F3 TEL-ABL = Ba/F3 TEL-ABL (Homo sapiens, UniProt P00519); assay: Inhibition of Ba/F3 TEL-ABL cell line; type: cell-based; settings: read-out: IC50 (μM) Ba/F3 TEL-ABL
Chain of Ba/F3 TEL-ABL (P00519 whole entry, looked up, change not shown): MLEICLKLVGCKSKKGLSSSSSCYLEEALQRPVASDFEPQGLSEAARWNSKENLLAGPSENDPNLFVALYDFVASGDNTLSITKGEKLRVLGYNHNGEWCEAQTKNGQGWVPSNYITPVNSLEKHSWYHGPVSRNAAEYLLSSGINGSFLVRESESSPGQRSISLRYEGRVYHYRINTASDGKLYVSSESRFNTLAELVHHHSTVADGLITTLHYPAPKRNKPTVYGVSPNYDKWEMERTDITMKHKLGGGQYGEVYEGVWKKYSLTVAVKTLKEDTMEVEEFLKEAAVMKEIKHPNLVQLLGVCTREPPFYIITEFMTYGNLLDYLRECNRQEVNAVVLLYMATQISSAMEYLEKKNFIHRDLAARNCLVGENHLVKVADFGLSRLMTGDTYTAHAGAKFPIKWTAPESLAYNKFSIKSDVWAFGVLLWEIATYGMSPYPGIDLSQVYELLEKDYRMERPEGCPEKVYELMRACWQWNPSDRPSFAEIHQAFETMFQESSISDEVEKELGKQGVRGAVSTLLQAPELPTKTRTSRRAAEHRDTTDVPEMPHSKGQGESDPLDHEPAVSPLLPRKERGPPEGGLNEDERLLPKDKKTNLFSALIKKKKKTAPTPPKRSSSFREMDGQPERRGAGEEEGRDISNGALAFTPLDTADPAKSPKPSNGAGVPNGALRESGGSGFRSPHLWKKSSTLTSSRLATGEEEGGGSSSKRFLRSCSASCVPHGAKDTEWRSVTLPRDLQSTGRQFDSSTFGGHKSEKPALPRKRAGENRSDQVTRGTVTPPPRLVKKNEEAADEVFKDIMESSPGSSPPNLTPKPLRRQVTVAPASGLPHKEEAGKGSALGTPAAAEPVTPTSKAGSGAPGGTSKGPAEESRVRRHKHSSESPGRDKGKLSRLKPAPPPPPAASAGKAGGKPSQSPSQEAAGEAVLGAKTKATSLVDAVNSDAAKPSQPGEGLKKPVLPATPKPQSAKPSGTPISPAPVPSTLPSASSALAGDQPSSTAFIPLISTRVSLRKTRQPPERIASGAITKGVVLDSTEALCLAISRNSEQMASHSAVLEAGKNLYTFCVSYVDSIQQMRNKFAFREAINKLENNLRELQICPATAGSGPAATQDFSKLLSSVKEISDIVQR
Experimental: as §1

Ba/F3 TEL-JAK2 = Ba/F3 TEL-JAK2 (Homo sapiens, UniProt O60674); assay: Inhibition of Ba/F3 TEL-JAK2 cell line; type: cell-based; settings: read-out: IC50 (μM) Ba/F3 TEL-JAK2
Experimental: as §1

Ba/F3 TYK2_E957D = Ba/F3 TYK2_E957D (Homo sapiens (Human), UniProt P29597, E957D); assay: Inhibition of Ba/F3 TYK2_E957D cell line; type: cell-based; settings: read-out: IC50 (μM) Ba/F3 TYK2_E957D
Chain of Ba/F3 TYK2_E957D (P29597 whole entry E957D): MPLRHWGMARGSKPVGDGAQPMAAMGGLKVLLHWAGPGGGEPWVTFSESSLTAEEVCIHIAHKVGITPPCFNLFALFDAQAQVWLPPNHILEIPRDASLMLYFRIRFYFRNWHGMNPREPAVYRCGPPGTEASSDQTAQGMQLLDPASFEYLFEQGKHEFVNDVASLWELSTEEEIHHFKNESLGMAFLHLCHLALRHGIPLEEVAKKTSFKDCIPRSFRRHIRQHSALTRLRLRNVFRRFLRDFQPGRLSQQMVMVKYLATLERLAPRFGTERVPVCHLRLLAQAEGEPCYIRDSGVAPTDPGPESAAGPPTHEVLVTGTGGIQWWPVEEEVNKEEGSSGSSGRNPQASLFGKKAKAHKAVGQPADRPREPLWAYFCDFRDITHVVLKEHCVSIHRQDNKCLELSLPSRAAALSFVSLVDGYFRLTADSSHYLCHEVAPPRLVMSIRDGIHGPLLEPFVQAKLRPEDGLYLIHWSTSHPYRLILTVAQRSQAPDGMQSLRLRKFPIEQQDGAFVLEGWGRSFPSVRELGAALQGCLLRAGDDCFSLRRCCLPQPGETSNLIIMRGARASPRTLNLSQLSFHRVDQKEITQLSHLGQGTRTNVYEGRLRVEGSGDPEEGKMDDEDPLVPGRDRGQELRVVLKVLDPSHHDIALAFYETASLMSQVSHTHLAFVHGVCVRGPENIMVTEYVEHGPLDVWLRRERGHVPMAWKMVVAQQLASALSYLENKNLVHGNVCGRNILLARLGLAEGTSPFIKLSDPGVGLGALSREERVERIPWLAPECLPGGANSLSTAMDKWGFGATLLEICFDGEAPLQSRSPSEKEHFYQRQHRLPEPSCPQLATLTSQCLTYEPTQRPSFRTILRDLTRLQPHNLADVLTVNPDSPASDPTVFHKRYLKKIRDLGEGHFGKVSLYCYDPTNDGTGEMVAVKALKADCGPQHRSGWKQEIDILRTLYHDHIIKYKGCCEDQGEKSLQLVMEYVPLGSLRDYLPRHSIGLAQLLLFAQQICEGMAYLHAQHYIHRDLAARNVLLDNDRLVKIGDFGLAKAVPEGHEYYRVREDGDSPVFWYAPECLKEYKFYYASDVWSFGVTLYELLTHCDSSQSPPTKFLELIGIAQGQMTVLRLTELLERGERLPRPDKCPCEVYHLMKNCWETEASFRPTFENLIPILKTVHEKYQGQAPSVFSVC
Experimental: as §1

TXK = TXK (Homo sapiens (Human), UniProt P42681); assay: Kinase inhibition TXK; type: biochemical
Chain of TXK (P42681 whole entry): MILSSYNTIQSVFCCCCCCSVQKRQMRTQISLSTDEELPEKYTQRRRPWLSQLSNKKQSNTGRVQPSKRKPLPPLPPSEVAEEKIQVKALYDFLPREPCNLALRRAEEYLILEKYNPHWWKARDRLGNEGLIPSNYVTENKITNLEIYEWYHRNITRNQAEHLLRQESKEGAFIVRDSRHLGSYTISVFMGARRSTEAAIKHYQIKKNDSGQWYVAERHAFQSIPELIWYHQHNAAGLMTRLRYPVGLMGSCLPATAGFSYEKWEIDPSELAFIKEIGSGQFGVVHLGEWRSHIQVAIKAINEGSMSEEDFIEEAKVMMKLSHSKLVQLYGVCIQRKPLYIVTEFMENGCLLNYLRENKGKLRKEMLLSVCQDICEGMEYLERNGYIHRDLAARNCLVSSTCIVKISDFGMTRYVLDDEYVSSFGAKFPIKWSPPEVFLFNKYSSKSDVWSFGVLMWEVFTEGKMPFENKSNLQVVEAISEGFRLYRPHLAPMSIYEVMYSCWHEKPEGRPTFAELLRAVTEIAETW

ITK = ITK (Homo sapiens (Human), UniProt Q08881); assay: Kinase inhibition ITK; type: biochemical
BLK = BLK (Homo sapiens (Human), UniProt P51451); assay: Kinase inhibition BLK; type: biochemical
Chain of BLK (P51451 whole entry): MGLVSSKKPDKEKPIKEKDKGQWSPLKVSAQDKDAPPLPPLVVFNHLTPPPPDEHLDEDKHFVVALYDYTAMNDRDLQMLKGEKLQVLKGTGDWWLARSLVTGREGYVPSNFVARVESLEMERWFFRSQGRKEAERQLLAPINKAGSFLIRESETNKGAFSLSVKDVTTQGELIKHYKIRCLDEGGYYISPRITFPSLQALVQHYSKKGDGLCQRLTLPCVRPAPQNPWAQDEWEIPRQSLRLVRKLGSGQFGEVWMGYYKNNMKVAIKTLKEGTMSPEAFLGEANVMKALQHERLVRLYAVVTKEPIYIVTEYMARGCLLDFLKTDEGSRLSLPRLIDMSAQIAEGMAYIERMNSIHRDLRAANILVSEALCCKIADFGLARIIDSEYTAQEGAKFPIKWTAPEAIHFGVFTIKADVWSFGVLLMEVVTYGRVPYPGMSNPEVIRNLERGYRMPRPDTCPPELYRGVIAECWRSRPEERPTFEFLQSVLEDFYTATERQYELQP

Ba/F3 TEL-JAK3 = Ba/F3 TEL-JAK3 (Homo sapiens, UniProt P52333); assay: Inhibition of Ba/F3 TEL-JAK3 cell line; type: cell-based; settings: read-out: IC50 (μM) Ba/F3 TEL-JAK3
Chain of Ba/F3 TEL-JAK3 (P52333 whole entry, looked up, change not shown): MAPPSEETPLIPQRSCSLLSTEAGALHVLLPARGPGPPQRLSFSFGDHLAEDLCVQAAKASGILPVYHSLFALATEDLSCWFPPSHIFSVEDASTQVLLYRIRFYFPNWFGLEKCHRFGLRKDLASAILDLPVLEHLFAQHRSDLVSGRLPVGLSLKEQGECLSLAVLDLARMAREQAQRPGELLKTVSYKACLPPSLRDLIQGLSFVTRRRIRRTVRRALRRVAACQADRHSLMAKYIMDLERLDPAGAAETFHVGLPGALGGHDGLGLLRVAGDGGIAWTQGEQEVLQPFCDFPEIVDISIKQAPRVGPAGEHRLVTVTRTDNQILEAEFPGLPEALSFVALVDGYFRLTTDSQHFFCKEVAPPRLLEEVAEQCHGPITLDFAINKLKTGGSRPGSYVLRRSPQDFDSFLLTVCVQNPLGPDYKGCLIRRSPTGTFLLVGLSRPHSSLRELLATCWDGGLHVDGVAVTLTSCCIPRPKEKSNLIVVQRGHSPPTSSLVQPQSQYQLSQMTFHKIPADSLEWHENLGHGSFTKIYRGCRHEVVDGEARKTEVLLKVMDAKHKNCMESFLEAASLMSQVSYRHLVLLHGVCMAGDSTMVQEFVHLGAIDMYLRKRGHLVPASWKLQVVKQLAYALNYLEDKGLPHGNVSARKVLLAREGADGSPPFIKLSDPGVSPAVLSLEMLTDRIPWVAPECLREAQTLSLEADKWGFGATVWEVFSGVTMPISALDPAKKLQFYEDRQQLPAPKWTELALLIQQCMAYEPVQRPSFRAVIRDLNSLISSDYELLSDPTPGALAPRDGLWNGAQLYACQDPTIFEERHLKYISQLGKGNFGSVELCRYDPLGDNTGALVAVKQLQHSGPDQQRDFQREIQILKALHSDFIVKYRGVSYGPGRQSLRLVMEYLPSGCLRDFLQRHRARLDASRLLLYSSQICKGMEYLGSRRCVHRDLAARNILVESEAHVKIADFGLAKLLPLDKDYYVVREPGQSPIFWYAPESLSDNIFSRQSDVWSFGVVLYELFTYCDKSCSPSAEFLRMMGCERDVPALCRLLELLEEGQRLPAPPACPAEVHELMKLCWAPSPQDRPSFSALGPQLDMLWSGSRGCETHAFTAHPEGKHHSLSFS
Experimental: as §1

Chain of TEC (P42680 whole entry): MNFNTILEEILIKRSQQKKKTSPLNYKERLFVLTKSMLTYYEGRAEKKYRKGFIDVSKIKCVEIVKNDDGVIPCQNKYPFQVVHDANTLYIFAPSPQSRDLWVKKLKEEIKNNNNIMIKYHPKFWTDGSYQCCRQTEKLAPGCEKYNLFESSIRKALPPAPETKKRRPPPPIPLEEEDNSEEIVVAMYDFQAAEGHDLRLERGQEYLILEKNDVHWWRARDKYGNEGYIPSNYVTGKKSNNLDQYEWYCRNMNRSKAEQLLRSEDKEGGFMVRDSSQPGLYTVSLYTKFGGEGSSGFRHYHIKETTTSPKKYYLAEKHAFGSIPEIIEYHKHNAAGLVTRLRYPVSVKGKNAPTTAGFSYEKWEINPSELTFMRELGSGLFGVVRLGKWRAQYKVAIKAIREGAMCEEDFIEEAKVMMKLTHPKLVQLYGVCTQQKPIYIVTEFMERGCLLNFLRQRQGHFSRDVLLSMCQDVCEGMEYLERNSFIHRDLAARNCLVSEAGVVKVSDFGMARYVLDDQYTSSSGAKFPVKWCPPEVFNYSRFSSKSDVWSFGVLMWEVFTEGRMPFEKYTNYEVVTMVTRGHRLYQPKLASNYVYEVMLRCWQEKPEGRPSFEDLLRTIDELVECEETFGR

SMILES: C=CC(=O)Nc1cccc(N(C(=O)OCc2ccccc2)c2ccnc(Nc3cnn(C)c3)n2)c1 [Compound 83A]
- Kinase inhibition (% control, 1000 nM compound) TEC (TEC): 5.7 % control
- IC50 (Ba/F3 TEL-JAK1): 9 µM
- IC50 (Ba/F3 TEL-ABL): 16.7 µM
- IC50 (Ba/F3 TEL-JAK2): 17.5 µM
- IC50 (Ba/F3 TYK2_E957D): 2.95 µM
- Kinase inhibition (% control, 1000 nM compound) TXK (TXK): 3.8 % control
- Kinase inhibition (% control, 1000 nM compound) ITK (ITK): 66 % control
- Kinase inhibition (% control, 1000 nM compound) BLK (BLK): 0.4 % control
- IC50 (Ba/F3 TEL-JAK3): 0.107 µM
